Patent publication US20240092761A1, “QUINAZOLINE COMPOUNDS AND METHODS OF USE” (IAMBIC THERAPEUTICS, INC., priority 2022, published 2024)

Assays:
[1] = biological target: CDK2/Cyclin E1 full length (Homo sapiens (Human), UniProt P24941); test: CDK2/Cyclin E1 Full Length ADP-Glo Kinase Assay; type: biochemical; conditions: 20 uM ATP, read-out: CDK2/ CyclinE1 IC50
In short: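 Full-length human CDK2/Cyclin E1 (0.328 nM) pre-incubated 30 min with inhibitor at RT, then reacted 90 min at RT with 20 uM ATP (Km 64.78 uM) and 0.75 uM substrate in pH 7.5 HEPES, 2% DMSO. ADP measured by ADP-Glo luminescence; IC50 from 4-parameter fit of fractional velocity.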

[2] = system: OVCAR-3 cells; test: Cell Growth Inhibition, OVCAR-3 (CellTiterGlo, 6 days); type: cell-based; conditions: Homo sapiens, 144 h; OVCAR-3, 6-day treatment, CellTiterGlo 2.0
In short: (§1)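 MCF-7 and OVCAR-3 cells (RPMI, 10% FBS) were seeded at 500 cells/well onto compound, typically 10–10,000 nM in half-log dilutions. Growth proceeded 6 days at 37 °C, then CellTiterGlo luminescence was read. % inhibition was taken versus control, and IC50 came from a four-parameter variable-slope fit.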

[3] = biological target: CDK4/Cyclin D1 (Homo sapiens (Human), UniProt P11802); test: CDK4/Cyclin D1 Mobility Shift Assay (MSA); type: biochemical; conditions: 0.2 mM ATP, read-out: CDK4/ CyclinD1 MSA IC50
Chain of CDK4/Cyclin D1 (P11802 whole entry): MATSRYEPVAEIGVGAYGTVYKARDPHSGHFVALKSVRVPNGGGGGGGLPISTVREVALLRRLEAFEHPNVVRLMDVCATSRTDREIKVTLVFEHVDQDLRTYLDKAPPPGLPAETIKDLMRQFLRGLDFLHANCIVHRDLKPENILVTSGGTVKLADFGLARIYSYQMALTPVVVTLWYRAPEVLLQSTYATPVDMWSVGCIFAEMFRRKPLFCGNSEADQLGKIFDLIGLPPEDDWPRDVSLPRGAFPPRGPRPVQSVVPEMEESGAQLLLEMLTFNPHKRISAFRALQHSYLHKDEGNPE
Chain of CDK4/Cyclin D1 (P24385 whole entry partner): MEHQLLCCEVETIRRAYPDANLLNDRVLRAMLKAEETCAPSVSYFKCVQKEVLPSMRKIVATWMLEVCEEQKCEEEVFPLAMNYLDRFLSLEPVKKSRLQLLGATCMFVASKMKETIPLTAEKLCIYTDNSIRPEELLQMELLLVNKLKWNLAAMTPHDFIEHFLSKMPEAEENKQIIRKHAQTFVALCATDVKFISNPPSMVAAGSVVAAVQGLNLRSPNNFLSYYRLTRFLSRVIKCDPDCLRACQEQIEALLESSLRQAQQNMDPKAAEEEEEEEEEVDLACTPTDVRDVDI
Source text: CDK4/Cyclin D1 Mobility Shift Assay (MSA)
The purpose CDK4/Cyclin D1 assay is to evaluate the inhibition (% inhibition and IC50 values) in the presence of small molecule inhibitors by using a fluorescence based microfluidic mobility shift assay. CDK4/Cyclin D1 catalyzes the production of ADP from ATP that accompanies the phosphoryl transfer to the substrate peptide 5-FAM-Dyrktide (5-FAM-RRRFRPASPLRGPPK) (Perkin Elmer Peptide 34). The mobility shift assay (MSA) electrophoretically separates the fluorescently labelled peptides (substrate and phosphorylated product) following the kinase reaction. Both substrate and product are measured, and the ratio of these values is used to generate % conversion of substrate to product by the LabChip EZ Reader. Typical reaction solutions contained 2% DMSO (+/−inhibitor), 10 mM MgCl2, 1 mM EGTA, 0.05% BSA, 2 mM DTT, 0.2 mM ATP, 0.01% Brig-35, 1.5 uM 5-FAM-Dyrktide, 2.5 nM CDK4/Cyclin D1 in 50 mM HEPES buffer at pH 7.5. The reaction was initiated with the addition of substrate solution, following a 30-minute pre-incubation of enzyme and inhibitor at 22° C. in the reaction mix. The reaction was stopped after 180 minutes by the addition of 75 uL of 500 mM EDTA and measured on a Perkin Elmer EZ reader instrument. IC50 determinations were made from a plot of the fractional velocity as a function of inhibitor concentration fit to the 4 parameters IC50 equation.

[4] = biological target: CDK1/Cyclin B1 (Homo sapiens (Human), UniProt P06493); test: CDK1/Cyclin B1 ADP-Glo Kinase Assay; type: biochemical; conditions: 80 uM ATP
Chain of CDK1/Cyclin B1 (P06493 whole entry): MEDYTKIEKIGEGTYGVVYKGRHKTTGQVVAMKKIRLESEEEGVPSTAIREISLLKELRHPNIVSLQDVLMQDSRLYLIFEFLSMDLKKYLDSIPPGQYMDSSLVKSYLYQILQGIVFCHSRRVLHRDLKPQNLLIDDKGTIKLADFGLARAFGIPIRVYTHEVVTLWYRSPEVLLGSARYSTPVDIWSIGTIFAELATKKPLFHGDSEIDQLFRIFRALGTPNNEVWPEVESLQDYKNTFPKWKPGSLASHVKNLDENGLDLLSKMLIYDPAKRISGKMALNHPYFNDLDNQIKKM
Chain of CDK1/Cyclin B1 (P14635 whole entry partner): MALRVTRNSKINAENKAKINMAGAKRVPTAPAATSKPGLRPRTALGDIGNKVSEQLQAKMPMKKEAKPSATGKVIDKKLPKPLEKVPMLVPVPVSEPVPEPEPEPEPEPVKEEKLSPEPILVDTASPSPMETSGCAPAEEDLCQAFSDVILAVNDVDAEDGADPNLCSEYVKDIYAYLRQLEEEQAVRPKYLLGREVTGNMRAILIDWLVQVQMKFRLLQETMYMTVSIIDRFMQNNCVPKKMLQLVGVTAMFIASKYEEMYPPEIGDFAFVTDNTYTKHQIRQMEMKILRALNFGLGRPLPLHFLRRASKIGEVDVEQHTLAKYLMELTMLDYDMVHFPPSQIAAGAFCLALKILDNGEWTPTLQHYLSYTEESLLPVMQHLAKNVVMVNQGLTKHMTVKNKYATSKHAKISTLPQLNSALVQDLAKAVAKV
In short: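 CDK1/cyclin B1 (4.917 nM) preincubated 30 min with inhibitor (2% DMSO), then 80 µM ATP (Km 78.6 µM) and 0.75 µM substrate added; 90 min, room temperature, pH 7.5. ADP measured by ADP-Glo luminescence; IC50 from 4-parameter fit.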

[5] = biological target: CDK6/Cyclin D3 (Homo sapiens (Human), UniProt Q00534); test: CDK6/Cyclin D3 ADP-Glo Kinase Assay; type: biochemical; conditions: 100 uM ATP, read-out: CDK6/ CyclinD3 IC50
Chain of CDK6/Cyclin D3 (Q00534 whole entry): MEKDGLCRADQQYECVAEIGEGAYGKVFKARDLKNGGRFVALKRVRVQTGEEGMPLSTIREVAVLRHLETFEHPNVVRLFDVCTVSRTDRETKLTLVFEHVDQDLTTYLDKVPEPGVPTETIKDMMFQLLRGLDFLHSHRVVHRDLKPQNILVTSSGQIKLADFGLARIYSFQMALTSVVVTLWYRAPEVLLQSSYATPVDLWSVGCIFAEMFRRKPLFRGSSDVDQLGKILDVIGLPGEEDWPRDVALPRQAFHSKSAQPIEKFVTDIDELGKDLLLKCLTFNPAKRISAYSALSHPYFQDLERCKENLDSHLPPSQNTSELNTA
Chain of CDK6/Cyclin D3 (P30281 whole entry partner): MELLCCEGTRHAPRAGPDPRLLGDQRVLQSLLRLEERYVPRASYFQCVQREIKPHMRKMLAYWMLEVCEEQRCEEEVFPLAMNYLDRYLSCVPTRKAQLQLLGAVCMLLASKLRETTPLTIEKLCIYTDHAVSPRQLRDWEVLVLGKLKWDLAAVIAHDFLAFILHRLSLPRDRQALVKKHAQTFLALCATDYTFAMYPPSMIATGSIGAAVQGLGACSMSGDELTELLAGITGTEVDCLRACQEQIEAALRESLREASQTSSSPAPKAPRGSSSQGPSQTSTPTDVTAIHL
In short: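 Recombinant human CDK6/Cyclin D3 pre-incubated 30 min with inhibitor at room temperature, then reaction started with ATP/substrate and run 90 min at room temperature. ADP formed detected by ADP-Glo luminescence; IC50 from a 4-parameter fit of fractional velocity versus inhibitor concentration.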

[6] = system: MCF-7 cells; test: Cell Growth Inhibition, MCF-7 (CellTiterGlo, 6 days); type: cell-based; conditions: Homo sapiens, MCF7, 144 h; MCF-7, 6-day treatment, CellTiterGlo 2.0
In short: as §1

Row | Compound | IC50 [1] | IC50 [2] | IC50 [3] | IC50 [4] | IC50 [5] | IC50 [6]
1 | CS(=O)(=O)N1CCC(Nc2ncc3cccc(C4CCCC4)c3n2)CC1 [Example 1, 8-cyclopentyl-N-(1-(methylsulfonyl)piperidin-4-yl)quinazolin-2-amine] | < 200 nM | 500 to 2000 nM | < 200 nM | < 200 nM | < 200 nM | 200 to 500 nM
2 | CS(=O)(=O)N1CCC(Nc2ncc3cccc(N4CCC5(C4)CC(F)(F)C5)c3n2)CC1 [Example 3, 8-(2,2-difluoro-6-azaspiro[3.4]octan-6-yl)-N-(1-(methylsulfonyl)piperidin-4-yl)quinazolin-2-amine] | < 200 nM | > 2000 nM | < 200 nM | 500 to 2000 nM | < 200 nM | > 2000 nM
3 | CS(=O)(=O)N1CCC(Nc2ncc3cccc(N4CCC5(C4)CS(=O)(=O)C5)c3n2)CC1 [Example 4, 6-(2-((1-(methylsulfonyl)piperidin-4-yl)amino)quinazolin-8-yl)-2-thia-6-azaspiro[3.4]octane 2,2-dioxide] | < 200 nM | > 2000 nM | < 200 nM | 500 to 2000 nM | < 200 nM | 500 to 2000 nM
4 | CS(=O)(=O)N1CCC(Nc2ncc3cccc(N4CCOC5(CC5)C4)c3n2)CC1 [Example 9, N-(1-(methylsulfonyl)piperidin-4-yl)-8-(4-oxa-7-azaspiro[2.5]octan-7-yl)quinazolin-2-amine] | 200 to 500 nM |  | 500 to 2000 nM | > 2000 nM | 200 to 500 nM | 
5 | CS(=O)(=O)N1CCC(Nc2ncc3cccc(N4CCN(C5COC5)CC4)c3n2)CC1 [Example 11, N-(1-(methylsulfonyl)piperidin-4-yl)-8-(4-(oxetan-3-yl)piperazin-1-yl)quinazolin-2-amine] | 500 to 2000 nM |  | 500 to 2000 nM | > 2000 nM | > 2000 nM | 
6 | CS(=O)(=O)N1CCC(Nc2ncc3cccc(N4CCN(S(C)(=O)=O)CC4)c3n2)CC1 [Example 12, 8-(4-(methylsulfonyl)piperazin-1-yl)-N-(1-(methylsulfonyl)piperidin-4-yl)quinazolin-2-amine] | 200 to 500 nM |  | 200 to 500 nM | > 2000 nM | 500 to 2000 nM | 
7 | CS(=O)(=O)N1CCC(Nc2ncc3cccc(N4CCN(C5CC5)CC4)c3n2)CC1 [Example 13, 8-(4-cyclopropylpiperazin-1-yl)-N-(1-(methylsulfonyl)piperidin-4-yl)quinazolin-2-amine] | < 200 nM |  | 200 to 500 nM | > 2000 nM | 500 to 2000 nM | 
8 | CS(=O)(=O)N1CCC(Nc2ncc3cccc(N4CC5(CCOCC5)C4C4CC4)c3n2)CC1 (stereo not shown) [Example 16, 8-(1-cyclopropyl-7-oxa-2-azaspiro[3.5]nonan-2-yl)-N-(1-(methylsulfonyl)piperidin-4-yl)quinazolin-2-amine] | < 200 nM |  | 500 to 2000 nM | > 2000 nM | > 2000 nM | 
9 | CS(=O)(=O)N1CCC(Nc2ncc3cccc(N4CCN(CC5CC5)CC4)c3n2)CC1 [Example 17, 8-(4-(cyclopropylmethyl)piperazin-1-yl)-N-(1-(methylsulfonyl)piperidin-4-yl)quinazolin-2-amine] | < 200 nM |  | 200 to 500 nM | > 2000 nM | 500 to 2000 nM | 
10 | CCN(CC)C1CCN(c2cccc3cnc(NC4CCN(S(C)(=O)=O)CC4)nc23)CC1 [Example 20, 8-(4-(diethylamino)piperidin-1-yl)-N-(1-(methylsulfonyl)piperidin-4-yl)quinazolin-2-amine] | < 200 nM |  | 200 to 500 nM | > 2000 nM | 500 to 2000 nM | 
11 | CC1(C)CC2(CN(c3cccc4cnc(NC5CCN(S(C)(=O)=O)CC5)nc34)C2)C1 [Example 21, 8-(6,6-dimethyl-2-azaspiro[3.3]heptan-2-yl)-N-(1-(methylsulfonyl)piperidin-4-yl)quinazolin-2-amine] | 200 to 500 nM |  | 200 to 500 nM | > 2000 nM | > 2000 nM | 
12 | CS(=O)(=O)N1CCC(Nc2ncc3cccc(N4CCC5(COC5)C4)c3n2)CC1 [Example 22, N-(1-(methylsulfonyl)piperidin-4-yl)-8-(2-oxa-6-azaspiro[3.4]octan-6-yl)quinazolin-2-amine] | < 200 nM |  | < 200 nM | 500 to 2000 nM | < 200 nM | 
13 | CS(=O)(=O)N1CCC(Nc2ncc3cccc(N4CCC5(CCN(S(C)(=O)=O)C5)C4)c3n2)CC1 (stereo not shown) [Example 23, 8-(7-(methylsulfonyl)-2,7-diazaspiro[4.4]nonan-2-yl)-N-(1-(methylsulfonyl)piperidin-4-yl)quinazolin-2-amine] | < 200 nM |  | < 200 nM | > 2000 nM | < 200 nM | 
14 | CC(=O)N1CCC2(CC1)CCN(c1cccc3cnc(NC4CCN(S(C)(=O)=O)CC4)nc13)C2 [Example 25, 1-(2-(2-((1-(methylsulfonyl)piperidin-4-yl)amino)quinazolin-8-yl)-2,8-diazaspiro[4.5]decan-8-yl)ethan-1-one] | < 200 nM |  | < 200 nM | > 2000 nM | 200 to 500 nM | 
15 | CS(=O)(=O)N1CCC(Nc2ncc3cccc(N4CCC5(CCC(F)(F)CC5)C4)c3n2)CC1 [Example 28, 8-(8,8-difluoro-2-azaspiro[4.5]decan-2-yl)-N-(1-(methylsulfonyl)piperidin-4-yl)quinazolin-2-amine] | < 200 nM |  | < 200 nM | > 2000 nM | < 200 nM | 
16 | CN1CCN(C2CCN(c3cccc4cnc(NC5CCN(S(C)(=O)=O)CC5)nc34)C2)CC1 (stereo not shown) [Example 29, 8-(3-(4-methylpiperazin-1-yl)pyrrolidin-1-yl)-N-(1-(methylsulfonyl)piperidin-4-yl)quinazolin-2-amine] | 200 to 500 nM |  | 500 to 2000 nM | > 2000 nM | > 2000 nM | 
17 | CS(=O)(=O)N1CCC(Nc2ncc3cccc(N4CC5CC(C4)O5)c3n2)CC1 [Example 30, 8-(6-oxa-3-azabicyclo[3.1.1]heptan-3-yl)-N-(1-(methylsulfonyl)piperidin-4-yl)quinazolin-2-amine] | < 200 nM |  | < 200 nM | 500 to 2000 nM | 200 to 500 nM | 
18 | CS(=O)(=O)N1CCC(Nc2ncc3cccc(N4CCC5(CCC(F)(F)C5)C4)c3n2)CC1 (stereo not shown) [Example 34, 8-(7,7-difluoro-2-azaspiro[4.4]nonan-2-yl)-N-(1-(methylsulfonyl)piperidin-4-yl)quinazolin-2-amine] | < 200 nM |  | < 200 nM | 500 to 2000 nM | 200 to 500 nM | 
19 | CCN1CC2(C1)CN(c1ccc(Nc3ncc4cccc(N5CC6(CCS6(=O)=O)C5)c4n3)nc1)C2 [Example 44, 6-(2-((5-(6-ethyl-2,6-diazaspiro[3.3]heptan-2-yl)pyridin-2-yl)amino)quinazolin-8-yl)-1-thia-6-azaspiro[3.3]heptane 1,1-dioxide] | > 2000 nM | > 2000 nM | < 200 nM | > 2000 nM | 200 to 500 nM | 
20 | CCN1CC2(C1)CN(c1ccc(Nc3ncc4cccc(N5CC6(C5)CC(F)(F)C6)c4n3)nc1)C2 [Example 49, 8-(6,6-difluoro-2-azaspiro[3.3]heptan-2-yl)-N-(5-(6-ethyl-2,6-diazaspiro[3.3]heptan-2-yl)pyridin-2-yl)quinazolin-2-amine] | > 2000 nM |  | < 200 nM | > 2000 nM | 200 to 500 nM | 
21 | N-(1-(methyl sulfonyl) piperidin-4-yl)-8-(2,6-diazaspiro[3.4]octan-2-yl) quinazolin-2-amine [Example 32] | < 200 nM |  | 200 to 500 nM | > 2000 nM | 500 to 2000 nM | 
